Test systems include RPMI-8226 leukemia; HCT-116 colon; A498 renal; HS 578T breast; A549 NSCLC; HCT-15 colon; UACC-257 melanoma; SK-MEL-5 melanoma; K-562 leukemia; NCI-H226 lung.
What all share (assay): growth of human tumour cells (NCI), 48 h

These results are taken from PubChem BioAssay (NCI).

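Test compounds were applied to cells in 96-well plates for 48 hours at 5 doses. Abbreviation: GI50, concentration required for 50% inhibition of growth. TGI is the concentration that stops growth completely.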

Take `O=C(/C=C/C=C/c1ccccc1)c1ccco1`: the GI50 in the test on RPMI-8226 leukemia was 1.81 µM; with HCT-116 colon it was 12.2 µM; with A498 renal, 14.3 µM; with HS 578T breast, 17.5 µM; in the test on A549 NSCLC, 23.8 µM; in the test on HCT-15 colon, 11.6 µM. Also, the GI50 in the test with UACC-257 melanoma is 21.8 µM; in the test on SK-MEL-5 melanoma, 15.9 µM; in the test with K-562 leukemia it was 10.1 µM; in the test with NCI-H226 lung, 20.7 µM. For the same molecule, the TGI with RPMI-8226 leukemia came out at 10.7 µM; in the test with HCT-116 colon it was 25.1 µM; in the test with A498 renal, 39.1 µM; in the test on HS 578T breast it was 52.9 µM; with A549 NSCLC, 77.4 µM; in the test with HCT-15 colon, 26.3 µM. The TGI in the test with UACC-257 melanoma amounted to 60.7 µM; in the test on SK-MEL-5 melanoma it was 29.4 µM; in the test on K-562 leukemia it was 29.6 µM; with NCI-H226 lung, 50.2 µM.
On to `O=C(O)/C(Cc1ccnc2ccccc12)=N\O`, for which the TGI in the test with RPMI-8226 leukemia, in the test on HCT-116 colon, with A498 renal, with HS 578T breast, in the test with A549 NSCLC and in the test with HCT-15 colon was over 100 µM each time. The TGI with UACC-257 melanoma, in the test with SK-MEL-5 melanoma, in the test on K-562 leukemia and in the test with NCI-H226 lung was over 100 µM in each case.
With `CCCc1cc(=O)n2c(C(=O)Nc3ccc(F)cc3)c(C(=O)Nc3ccc(F)cc3)sc2n1`, the GI50 was 23.9 µM with RPMI-8226 leukemia; 18.3 µM in the test on HCT-116 colon; 46.4 µM in the test with A498 renal; 2.58 µM with HS 578T breast; 17.5 µM in the test with A549 NSCLC; 89.7 µM in the test with HCT-15 colon. Moreover, the GI50 was 20.8 µM in the test with UACC-257 melanoma, over 160 µM in the test with SK-MEL-5 melanoma, 10.6 µM in the test on K-562 leukemia and 1.71 µM in the test with NCI-H226 lung. In addition, the TGI with RPMI-8226 leukemia is 93.6 µM; in the test with HCT-116 colon it was over 160 µM; in the test on A498 renal, 137 µM; in the test on HS 578T breast it was 11.1 µM; in the test with A549 NSCLC, 40 µM; with HCT-15 colon, over 160 µM. Moreover, the TGI is 62.8 µM with UACC-257 melanoma, over 160 µM with SK-MEL-5 melanoma, over 160 µM in the test with K-562 leukemia and 16.3 µM in the test on NCI-H226 lung.
On to `CC(=O)N1CCN(CCNC(=O)n2cc(-c3ccncc3)c(-c3cc(O)cc(Cl)c3)n2)CC1`, for which the GI50 with RPMI-8226 leukemia is 4.69 µM; with HCT-116 colon, 5.47 µM; with A498 renal, 11.7 µM; with HS 578T breast, 16.7 µM; with A549 NSCLC, 15.1 µM; with HCT-15 colon, 4.25 µM. In addition, the GI50 was 1.85 µM in the test on UACC-257 melanoma, 3.66 µM in the test with SK-MEL-5 melanoma, 4.41 µM with K-562 leukemia and 16.7 µM in the test on NCI-H226 lung. Also, the TGI came to 23.4 µM with RPMI-8226 leukemia; 18.8 µM with HCT-116 colon; 28.3 µM in the test with A498 renal; 53.4 µM with HS 578T breast; 38.7 µM with A549 NSCLC; 22.2 µM in the test with HCT-15 colon. In addition, the TGI was 4.61 µM with UACC-257 melanoma, 16.9 µM in the test on SK-MEL-5 melanoma, 29.4 µM with K-562 leukemia and 40.5 µM with NCI-H226 lung.
Consider `COc1cccc2cc(N(C)c3nc(C)nc4c3CCC4)ccc12`, for which the GI50 in the test on RPMI-8226 leukemia, with HCT-116 colon, in the test with A498 renal, with HS 578T breast, in the test with A549 NSCLC and with HCT-15 colon was under 0.01 µM in each case. Moreover, the GI50 in the test with UACC-257 melanoma is 2.57 µM; with SK-MEL-5 melanoma, under 0.01 µM; in the test on K-562 leukemia it was under 0.01 µM; in the test with NCI-H226 lung, 12.7 µM. Besides, the TGI in the test on RPMI-8226 leukemia came out at 18.5 µM; with HCT-116 colon, 10.4 µM; in the test with A498 renal, 14.7 µM; in the test on HS 578T breast, 30 µM; in the test on A549 NSCLC, 14.2 µM; with HCT-15 colon, 6.41 µM. The TGI with UACC-257 melanoma was 20.6 µM; in the test on SK-MEL-5 melanoma it was 0.0161 µM; with K-562 leukemia it was 31.5 µM; with NCI-H226 lung, 32.4 µM.
With `Cc1ccc([N+](=O)[O-])c2c(NCCNC(=O)c3cc(C(=O)NCCNc4ccnc5c(C)ccc([N+](=O)[O-])c45)n(C)n3)ccnc12`, the TGI is 78.3 µM in the test on RPMI-8226 leukemia; over 100 µM with HCT-116 colon; over 100 µM in the test with A498 renal; over 100 µM in the test with HS 578T breast; over 68.8 µM in the test on A549 NSCLC; over 100 µM in the test with HCT-15 colon. Also, the TGI in the test with UACC-257 melanoma was over 100 µM; in the test with SK-MEL-5 melanoma, 58 µM; in the test on K-562 leukemia, over 76.4 µM; with NCI-H226 lung it was over 100 µM.
With `CSc1nc2nc3c(nc2c(=O)n1C)C(=O)c1ccccc1C3=O`, the GI50 was 0.255 µM with RPMI-8226 leukemia; 0.149 µM in the test with HCT-116 colon; 0.186 µM in the test on A498 renal; 0.226 µM in the test with HS 578T breast; 0.0387 µM in the test on A549 NSCLC; 0.164 µM with HCT-15 colon. For the same molecule, the GI50 in the test on UACC-257 melanoma was 0.131 µM; in the test with SK-MEL-5 melanoma, 0.0169 µM; in the test with K-562 leukemia, 0.272 µM; with NCI-H226 lung it was 0.193 µM. For the same molecule, the TGI was found to be 1.02 µM in the test on RPMI-8226 leukemia; 1.13 µM in the test on HCT-116 colon; 0.768 µM with A498 renal; 0.678 µM with HS 578T breast; 0.184 µM with A549 NSCLC; 0.429 µM in the test with HCT-15 colon. Further, the TGI in the test on UACC-257 melanoma was 0.265 µM; in the test with SK-MEL-5 melanoma, 0.0322 µM; with K-562 leukemia it was 1.32 µM; in the test with NCI-H226 lung, 0.461 µM.
For the molecule `O=C1/C(=C/c2ccc(F)cc2)CN(C(=O)CCN2CCC(=NO)CC2)C/C1=C\c1ccc(F)cc1`, the GI50 in the test with RPMI-8226 leukemia is 0.707 µM; with HCT-116 colon, 0.413 µM; in the test on A498 renal, 1.31 µM; with HS 578T breast, 1.71 µM; with A549 NSCLC it was 4.09 µM; with HCT-15 colon, 0.691 µM. Moreover, the GI50 was 2.4 µM with UACC-257 melanoma, 1.73 µM with SK-MEL-5 melanoma, 0.408 µM with K-562 leukemia and 2.55 µM with NCI-H226 lung. Besides, the TGI worked out at 2.13 µM with RPMI-8226 leukemia; 0.861 µM in the test with HCT-116 colon; 2.63 µM in the test with A498 renal; 6.51 µM in the test on HS 578T breast; 11.2 µM in the test with A549 NSCLC; 2.6 µM in the test with HCT-15 colon. Also, the TGI in the test with UACC-257 melanoma was 7.05 µM; in the test with SK-MEL-5 melanoma, 3.26 µM; with K-562 leukemia, over 49.7 µM; in the test with NCI-H226 lung, 8.51 µM.
Regarding `O=C(O)/C(Cc1cn[nH]n1)=N\O`, the TGI in the test with RPMI-8226 leukemia, in the test on HCT-116 colon, in the test with A498 renal, in the test on HS 578T breast, in the test on A549 NSCLC and with HCT-15 colon was over 100 µM throughout. The TGI in the test on UACC-257 melanoma, with SK-MEL-5 melanoma, in the test on K-562 leukemia and in the test on NCI-H226 lung was over 100 µM in each case.
On to `COc1cc(C2C3=C(COC3=O)N(CCO)c3cc4c(cc32)OCCO4)cc(OC)c1OC` (stereo not drawn), for which the GI50 with RPMI-8226 leukemia is 0.149 µM; in the test with HCT-116 colon it was 0.178 µM; with A498 renal it was 0.14 µM; in the test with HS 578T breast, 0.164 µM; in the test on A549 NSCLC, 0.487 µM; with HCT-15 colon, 1.37 µM. The GI50 is 0.384 µM in the test on UACC-257 melanoma, 0.179 µM in the test on SK-MEL-5 melanoma, 0.177 µM in the test on K-562 leukemia and 4.48 µM with NCI-H226 lung. Also, the TGI is 0.441 µM in the test with A498 renal; 35.5 µM with HS 578T breast; over 50 µM in the test on A549 NSCLC; over 50 µM with HCT-15 colon; over 50 µM with UACC-257 melanoma; 0.916 µM in the test with SK-MEL-5 melanoma. Also, the TGI with K-562 leukemia and with NCI-H226 lung was over 50 µM throughout.
As to `COc1ccc(/C=C/c2c(C(=O)/C=C/c3ccc(C(F)(F)F)cc3)c(C)nc3ccccc23)cc1`, the GI50 in the test with RPMI-8226 leukemia is 0.807 µM; with HCT-116 colon, 0.414 µM; in the test on A498 renal it was 1.77 µM; in the test on HS 578T breast it was 2.87 µM; in the test on A549 NSCLC, 2.71 µM; in the test on HCT-15 colon, 1.14 µM. The GI50 in the test with UACC-257 melanoma was 2.09 µM; in the test with SK-MEL-5 melanoma, 1.68 µM; with K-562 leukemia, 2.05 µM; in the test on NCI-H226 lung, 1.85 µM. Also, the TGI in the test on RPMI-8226 leukemia came out at 7.65 µM; in the test on HCT-116 colon, 1.97 µM; in the test on A498 renal it was 3.24 µM; in the test with HS 578T breast, 8.29 µM; in the test with A549 NSCLC, 8.57 µM; in the test with HCT-15 colon, 4.59 µM. The TGI with UACC-257 melanoma is 4.52 µM; in the test on SK-MEL-5 melanoma it was 3.09 µM; with K-562 leukemia, over 100 µM; in the test with NCI-H226 lung, 4.01 µM.
For the molecule `CCN(CC)CCCC(C)Nc1cc(-c2cccc(OC(F)(F)F)c2)nc2ccc(N3CCCC3)cc12` (stereo not drawn), the GI50 with RPMI-8226 leukemia was 0.0788 µM; in the test with HCT-116 colon, 0.0371 µM; in the test on A498 renal, 0.0301 µM; with HS 578T breast it was 0.0337 µM; in the test on A549 NSCLC, 0.0677 µM; with HCT-15 colon, 0.0415 µM. For the same molecule, the GI50 was 0.97 µM in the test with UACC-257 melanoma, 0.126 µM with SK-MEL-5 melanoma, 0.0391 µM in the test on K-562 leukemia and 0.189 µM in the test on NCI-H226 lung. The TGI in the test with RPMI-8226 leukemia is 13.1 µM; with HCT-116 colon, 13.7 µM; in the test with A498 renal, 3.03 µM; in the test on HS 578T breast, 3.22 µM; with A549 NSCLC it was over 100 µM; in the test on HCT-15 colon it was 12.4 µM. For the same molecule, the TGI is 47.7 µM in the test with UACC-257 melanoma, 0.589 µM with SK-MEL-5 melanoma, over 100 µM with K-562 leukemia and 9.57 µM in the test on NCI-H226 lung.
As for `S=C1Cc2c(-c3ccc(Br)cc3)cc(-c3ccccc3)nc2-c2ccccc2N1`, the TGI is 65.8 µM in the test with RPMI-8226 leukemia; 5.38 µM in the test on HCT-116 colon; 3.71 µM in the test with A498 renal; 3.84 µM in the test with HS 578T breast; 8.23 µM with A549 NSCLC; 14.6 µM in the test on HCT-15 colon. Besides, the TGI in the test on UACC-257 melanoma is 9.74 µM; in the test with SK-MEL-5 melanoma, 23.5 µM; with K-562 leukemia, over 100 µM; in the test with NCI-H226 lung, 8.54 µM.
